Active and inactive are the calls of the source. The rule behind the calls is not given here.
Columns and labels:
HeLa [1] = experiment: Antiproliferative activity against human HeLa cells at 5 uM incubated for 48 hrs by MTT assay relative to control; format: functional
A549 [2] = experiment: Antiproliferative activity against human A549 cells at 5 uM incubated for 48 hrs by MTT assay relative to control; format: functional
HeLa [3] = experiment: Antiproliferative activity against human HeLa cells incubated for 48 hrs by MTT assay; format: functional, cell-based
[4] = Antiproliferative activity against HEK293T cells incubated for 48 hrs by MTT assay; format: toxicity, cell-based, HEK-293T; conditions: human
PC-3 [5] = experiment: Antiproliferative activity against human PC-3 cells incubated for 48 hrs by MTT assay; format: functional, cell-based; conditions: for IC50: PC-3, 48 h; for IC20: PC-3, time 48 hrs
PC-3 [6] = experiment: Antiproliferative activity against human PC-3 cells at 5 uM incubated for 48 hrs by MTT assay relative to control; format: functional
K562 [7] = experiment: Antiproliferative activity against human K562 cells at 5 uM incubated for 48 hrs by MTT assay relative to control; format: functional
K562 [8] = experiment: Antiproliferative activity against human K562 cells incubated for 48 hrs by MTT assay; format: functional, cell-based; conditions: K562, 48 h
[9] = Antiproliferative activity against HEK293T cells at 5 uM incubated for 48 hrs by MTT assay relative to control; format: toxicity, cell-based, HEK-293T; conditions: human
A549 [10] = experiment: Antiproliferative activity against human A549 cells incubated for 48 hrs by MTT assay; format: functional, cell-based; conditions: A549, 48 h
PC-3 [11] = experiment: Inhibition of cell survival in human PC-3 cells at 1000 nM pretreated for 48 hrs followed by fresh media replacement without compound measured after 2 weeks by colony formation assay; format: functional, cell-based
PC-3 [12] = experiment: Antiproliferative activity against human PC-3 overexpressing WRN cells incubated for 48 hrs by MTT assay; format: functional

Row | Compound | inhibition at 5 µM (HeLa [1]) | inhibition at 5 µM (A549 [2]) | IC50 (HeLa [3]) | IC50 at 48 h [4] | IC50 (PC-3 [5]) | inhibition at 5 µM (PC-3 [6]) | inhibition at 5 µM (K562 [7]) | IC50 (K562 [8]) | inhibition at 48 h, 5 µM [9] | IC50 (A549 [10]) | IC20 (PC-3 [5]) | inhibition (PC-3 [11]) | IC20 (PC-3 [12])
1 | CC(C)(CN1C(=O)C(Cl)=C(Cl)C1=O)CN1C(=O)C(Cl)=C(Cl)C1=O | 69.1% | 7.3% | 2.7 µM | 3.1 µM | 6.8 µM | 51.1% | 35% | 1.8 µM | 71% | 3.4 µM | – | – | –
2 | CCOC(=O)c1c(C)nc(-c2ccc(N(C)c3nc(C(=O)c4ccccc4)nc4ccc(F)cc34)cc2)n1C | 4% | 1.8% | – | – | – | 1% | 30.1% | – | 0.3% | – | – | – | –
3 | Cc1ccc(Nc2nc(C(=O)c3ccc(F)cc3)nc3ccccc23)c(C(=O)O)c1 | 42.7% | 29.9% | – | – | – | -4.2% | 6.5% | – | 20.6% | – | – | – | –
4 | COc1cccc(C(=O)c2nc(N(C)c3ccc(OC)c(OC)c3)c3ccccc3n2)c1 | 47.1% | 45.4% | – | – | – | 25.3% | 38.8% | – | 46.3% | – | – | – | –
5 | O=C(c1ccc(F)cc1)c1nc(Nc2ccc(N3CCNCC3)c(F)c2)c2ccccc2n1 | 11.3% | 4.1% | – | – | – | -9.6% | -10.7% | – | 9.5% | – | – | – | –
6 | COc1ccc(Nc2nc(C(=O)c3cccc(OC)c3)nc3ccccc23)cc1 | 40.1% | 44.3% | – | – | – | 46.5% | 25.2% | – | 4.7% | – | – | – | –
7 | COC(=O)c1ccc(N(C)c2nc(C(=O)c3ccc(F)cc3)nc3ccccc23)cc1OC | 31.2% | 21.9% | – | – | – | 43.6% | 40.2% | – | 38% | – | – | – | –
8 | COc1ccc(N(C)c2nc(C(=O)c3ccccc3)nc3ccc(F)cc23)cc1 | 37.8% | 25% | – | – | – | 40.9% | 24.1% | – | 39.3% | – | – | – | –
9 | COc1cccc(C(=O)c2nc(Nc3ccc(OC)c(OC)c3)c3ccccc3n2)c1 | 41.1% | 47.4% | – | – | – | -10.2% | 8.7% | – | 5.5% | – | – | – | –
10 | O=C(c1ccccc1)c1nc(Nc2ccc(N3CCOCC3)cc2)c2cc(F)ccc2n1 | 31.1% | 39.3% | – | – | – | 3.1% | 28.1% | – | 29.7% | – | – | – | –
11 | COC(=O)c1ccc(N(C)c2nc(C(=O)c3ccccc3)nc3ccc(F)cc23)cc1 | 16% | 46.1% | – | – | – | 39% | 25.9% | – | 37.6% | – | – | – | –
12 | CC(C)[C@H](N)c1nc(Nc2ccc(OC(F)(F)F)cc2)c2ccccc2n1 | 2.6% | 11.4% | – | – | – | 13.3% | 7.2% | – | 4.4% | – | – | – | –
13 | COc1ccc(N(C)c2nc([C@@H](N)C(C)C)nc3ccccc23)cc1 | 33.6% | 72.6% | > 10 µM | 7.9 µM | 8 µM | 51.9% | 85.2% | 8 µM | 59.2% | > 10 µM | 7.61 µM | Active | 1.11 µM
14 | CC(C)[C@H](N)c1nc(Nc2ccc(N3CCOCC3)cc2)c2ccccc2n1 | 6.5% | -0.7% | – | – | – | 2.1% | 8.2% | – | 1.2% | – | – | – | –
15 | COc1ccc(Nc2nc(C(=O)c3ccccc3)nc3ccc(F)cc23)cc1 | 2% | 2.9% | – | – | – | 3.4% | 0.5% | – | 2.4% | – | – | – | –
16 | COc1cc(N2CCNCC2)ccc1Nc1nc(C(=O)c2ccc(F)cc2)nc2ccccc12 | 1.7% | -0.5% | – | – | – | 9% | -6.6% | – | 5.8% | – | – | – | –
17 | COC(=O)c1ccc(Nc2nc(C(=O)c3ccc(F)cc3)nc3ccccc23)cc1 | 37.8% | 35.7% | – | – | – | 19% | 6.8% | – | 18.9% | – | – | – | –

Row | Compound | inhibition at 5 µM (HeLa [1]) | inhibition at 5 µM (A549 [2]) | IC50 (HeLa [3]) | IC50 at 48 h [4] | IC50 (PC-3 [5]) | inhibition at 5 µM (PC-3 [6]) | inhibition at 5 µM (K562 [7]) | IC50 (K562 [8]) | inhibition at 48 h, 5 µM [9] | IC50 (A549 [10]) | IC20 (PC-3 [5]) | inhibition (PC-3 [11]) | IC20 (PC-3 [12])
18 | O=C(c1ccccc1)c1nc(Nc2ccc(OC(F)(F)F)cc2)c2cc(F)ccc2n1 | 27.8% | 42.2% | – | – | – | 47.6% | 19.3% | – | 23% | – | – | – | –
19 | C=CC(=O)Nc1cccc(Nc2nc(C(=O)c3ccccc3)nc3ccc(F)cc23)c1 | 7% | 7.9% | – | – | – | 9.6% | 8.9% | – | 4.8% | – | – | – | –
20 | COc1cc(N(C)c2nc(C(=O)c3ccc(F)cc3)nc3ccccc23)ccc1C(=O)O | 12.3% | 5.1% | – | – | – | -8.9% | 6.4% | – | 5.3% | – | – | – | –
21 | COc1ccc(N(C)c2nc(C(=O)c3cccc(OC)c3)nc3ccccc23)cc1 | 51% | 52% | > 10 µM | 6.4 µM | 6.6 µM | 58.1% | 61.5% | 9.3 µM | 59.6% | > 10 µM | 0.975 µM | – | 1.07 µM
22 | CN(c1ccc(OC(F)(F)F)cc1)c1nc(C(=O)c2ccccc2)nc2ccc(F)cc12 | -3.1% | 18.4% | – | – | – | 10.4% | -2.2% | – | 1.3% | – | – | – | –
23 | CCOC(=O)c1[nH]c(-c2ccc(Nc3nc(C(=O)c4ccccc4)nc4ccc(F)cc34)cc2)nc1C | 34.9% | 40.6% | > 10 µM | 6.2 µM | 5.7 µM | 44.5% | 55.4% | 8 µM | 58.3% | > 10 µM | 7.51 µM | – | 6.6 µM
24 | COc1cccc2c1C(=O)c1c(O)c3c(c(O)c1C2=O)C[C@@](O)(C(=O)CO)C[C@@H]3O[C@H]1C[C@H](N)[C@H](O)[C@H](C)O1 [DOXORUBICIN] | 71.7% | 30.1% | – | 2.4 µM | – | 80.1% | 61% | 2.3 µM | 81.1% | 4.4 µM | – | – | –
25 | COC(=O)c1ccc(Nc2nc(C(=O)c3ccc(F)cc3)nc3ccccc23)cc1OC | 8.2% | 8.5% | – | – | – | -5.7% | 8.5% | – | 4.6% | – | – | – | –
26 | COC(=O)c1ccc(Nc2nc(C(=O)c3cccc(OC)c3)nc3ccccc23)cc1OC | 37.7% | 40.1% | – | – | – | 48.3% | 9.5% | – | 14.5% | – | – | – | –
27 | COC(=O)c1ccc(Nc2nc(C(=O)c3ccccc3)nc3ccc(F)cc23)cc1 | 0.8% | 17.7% | – | – | – | 29.3% | 19.5% | – | 11.1% | – | – | – | –
28 | COc1cccc(C(F)(F)c2nc(N(C)c3ccc(OC)c(OC)c3)c3ccccc3n2)c1 | 51.2% | 53.2% | > 10 µM | 1.1 µM | > 10 µM | 62.7% | 65.5% | 0.05 µM | 63.6% | > 10 µM | 0.981 µM | Active | 0.123 µM
29 | COc1ccc(Nc2nc([C@@H](N)C(C)C)nc3ccccc23)cc1 | 9.3% | 3.4% | – | – | – | -4.8% | 0.8% | – | 8.4% | – | – | – | –
30 | CN(c1ccc(N2CCOCC2)cc1)c1nc(C(=O)c2ccccc2)nc2ccc(F)cc12 | 40.3% | 3.3% | – | – | – | 35.4% | 35.4% | – | 34.5% | – | – | – | –
31 | COc1ccc(N(C)c2nc(C(F)(F)c3cccc(OC)c3)nc3ccccc23)cc1 | 47.8% | 52.7% | > 10 µM | 2.1 µM | 5.6 µM | 57.6% | 61.3% | 0.3 µM | 56.6% | > 10 µM | 0.25 µM | – | 0.144 µM
32 | CC(C)[C@H](N)c1nc(N(C)c2ccc(OC(F)(F)F)cc2)c2ccccc2n1 | 11.3% | 56.2% | – | – | – | 7% | 81.4% | – | 25.5% | – | – | – | –
33 | COc1cc(N2CCNCC2)ccc1N(C)c1nc(C(=O)c2ccc(F)cc2)nc2ccccc12 | 5.2% | 11.9% | – | – | – | 17.3% | 3.3% | – | 3.2% | – | – | – | –

Source: ChEMBL document CHEMBL5550093, “Design, synthesis and antitumor activity of 2-substituted quinazoline-4-amine derivatives” (Bioorg Med Chem, 2024)
